From ChEMBL document CHEMBL2401659, “Synthesis, anticancer activity and photophysical properties of novel substituted 2-oxo-2H-chromenylpyrazolecarboxylates” (Eur J Med Chem, 2013)

These compounds were tested on DU-145 (assay: Cytotoxicity against human DU145 cells after 48 hrs by MTT assay). Details: DU-145, 48 h.
Type: functional, cell-based
`Cc1ccc2oc(=O)c3cnn(-c4ccccc4)c3c2c1` was tested, and the IC50 was 110 µM. Compound `CCOC(=O)c1c(-c2cc3ccccc3oc2=O)nn(-c2ccccc2)c1C(=O)OCC` has an IC50 of 57 µM. With `Cc1ccc2oc(=O)c3cnn(-c4cccc(Cl)c4)c3c2c1` the IC50 was 105 µM. With `CCOC(=O)c1c(-c2cc3ccc(OCC=C(C)C)cc3oc2=O)nn(-c2cccc(Cl)c2)c1C(=O)OCC` the IC50 was 139 µM. For `COC(=O)Nc1nc2cc(C(=O)c3cccs3)ccc2[nH]1` [NOCODAZOLE], the IC50 was 2.8 µM. Compound `CCOC(=O)c1c(-c2cc3cc(OC)ccc3oc2=O)nn(-c2cccc(C)c2)c1C(=O)OCC` has an IC50 of 31 µM. `O=c1oc2ccccc2c2c1cnn2-c1cccc(Cl)c1` showed an IC50 of 60 µM. `CCOC(=O)c1c(-c2cc3ccccc3oc2=O)nn(-c2ccc(Cl)cc2)c1C(=O)OCC` gave an IC50 of 26 µM. `CCOC(=O)c1c(-c2cc3ccc(OC)cc3oc2=O)nn(-c2ccccc2)c1C(=O)OCC` showed an IC50 of 33 µM. `CCOC(=O)c1c(-c2cc3ccccc3oc2=O)nn(-c2cccc(C)c2)c1C(=O)OCC` was tested, and the IC50 was 47 µM. For `CCOC(=O)c1c(-c2c(Cl)c3cc(C)ccc3oc2=O)nn(-c2ccccc2)c1C(=O)OCC`, the IC50 was 50 µM. Compound `CCOC(=O)c1c(-c2cc3c(ccc4ccccc43)oc2=O)nn(-c2ccccc2)c1C(=O)OCC` has an IC50 of 80 µM. For `COC(=O)c1c(-c2cc3ccccc3oc2=O)nn(-c2cccc(Cl)c2)c1C(=O)OC`, the IC50 was 32 µM. `CCOC(=O)c1c(-c2c(Cl)c3cc(C)ccc3oc2=O)nn(-c2cccc(Cl)c2)c1C(=O)OCC` was tested, and the IC50 was 156 µM. `CCOC(=O)c1c(-c2cc3c(ccc4ccccc43)oc2=O)nn(-c2cccc(Cl)c2)c1C(=O)OCC` was tested, and the IC50 was 257 µM. `CCOC(=O)c1c(-c2cc3cc4c(cc3oc2=O)OC(C)(C)CC4)nn(-c2ccccc2)c1C(=O)OCC` gave an IC50 of 209 µM. With `Cc1nn(-c2cccc(F)c2)c2c1c(=O)oc1ccccc12` the IC50 was 134 µM. For `CCOC(=O)c1c(-c2c(Cl)c3ccccc3oc2=O)nn(-c2cccc(Cl)c2)c1C(=O)OCC`, the IC50 was 24 µM. For `CCOC(=O)c1c(-c2cc3ccc(OCC=C(C)C)cc3oc2=O)nn(-c2cccc(C)c2)c1C(=O)OCC`, the IC50 was 125 µM. `CCOC(=O)c1c(-c2c(Cl)c3ccccc3oc2=O)nn(-c2ccc(Br)cc2)c1C(=O)OCC` showed an IC50 of 32 µM. `COC(=O)c1c(-c2cc3ccccc3oc2=O)nn(-c2cccc(C)c2)c1C(=O)OC` was tested, and the IC50 was 35 µM. `CCOC(=O)c1c(-c2cc3c(ccc4ccccc43)oc2=O)nn(-c2cccc(C)c2)c1C(=O)OCC` showed an IC50 of 259 µM. `CCOC(=O)c1c(-c2cc3ccccc3oc2=O)nn(-c2ccc(Br)cc2)c1C(=O)OCC` showed an IC50 of 61 µM. `Cc1nn(-c2ccc(Cl)cc2)c2c1c(=O)oc1ccccc12` was tested, and the IC50 was 121 µM. For `COC(=O)c1c(-c2cc3ccccc3oc2=O)nn(-c2cccc(F)c2)c1C(=O)OC`, the IC50 was 37 µM. `CCOC(=O)c1c(-c2cc3cc(OC)ccc3oc2=O)nn(-c2ccccc2)c1C(=O)OCC` gave an IC50 of 27 µM.

The compounds below were run on A549 (assay: Cytotoxicity against human A549 cells after 48 hrs by MTT assay). Details: A549, 48 h.
Type: functional, cell-based
Compound `Cc1ccc2oc(=O)c3cnn(-c4ccccc4)c3c2c1` has an IC50 of 125 µM. `CCOC(=O)c1c(-c2cc3ccccc3oc2=O)nn(-c2ccccc2)c1C(=O)OCC` gave an IC50 of 100 µM. For `Cc1ccc2oc(=O)c3cnn(-c4cccc(Cl)c4)c3c2c1`, the IC50 was 150 µM. Work on `CCOC(=O)c1c(-c2cc3ccc(OCC=C(C)C)cc3oc2=O)nn(-c2cccc(Cl)c2)c1C(=O)OCC` yielded an IC50 of 163 µM. With `COC(=O)Nc1nc2cc(C(=O)c3cccs3)ccc2[nH]1` [NOCODAZOLE] the IC50 was 2.31 µM. `CCOC(=O)c1c(-c2cc3cc(OC)ccc3oc2=O)nn(-c2cccc(C)c2)c1C(=O)OCC` showed an IC50 of 102 µM. With `O=c1oc2ccccc2c2c1cnn2-c1cccc(Cl)c1` the IC50 was 110 µM. In the case of `CCOC(=O)c1c(-c2cc3ccccc3oc2=O)nn(-c2ccc(Cl)cc2)c1C(=O)OCC`, the IC50 is reported as 35 µM. `CCOC(=O)c1c(-c2cc3ccc(OC)cc3oc2=O)nn(-c2ccccc2)c1C(=O)OCC` gave an IC50 of 132 µM. `CCOC(=O)c1c(-c2cc3ccccc3oc2=O)nn(-c2cccc(C)c2)c1C(=O)OCC` gave an IC50 of 52 µM. `CCOC(=O)c1c(-c2c(Cl)c3cc(C)ccc3oc2=O)nn(-c2ccccc2)c1C(=O)OCC` showed an IC50 of 108 µM. `CCOC(=O)c1c(-c2cc3c(ccc4ccccc43)oc2=O)nn(-c2ccccc2)c1C(=O)OCC` was tested, and the IC50 was 136 µM. With `COC(=O)c1c(-c2cc3ccccc3oc2=O)nn(-c2cccc(Cl)c2)c1C(=O)OC` the IC50 was 30 µM. `CCOC(=O)c1c(-c2c(Cl)c3cc(C)ccc3oc2=O)nn(-c2cccc(Cl)c2)c1C(=O)OCC` was tested, and the IC50 was 128 µM. With `CCOC(=O)c1c(-c2cc3c(ccc4ccccc43)oc2=O)nn(-c2cccc(Cl)c2)c1C(=O)OCC` the IC50 was 165 µM. `CCOC(=O)c1c(-c2cc3cc4c(cc3oc2=O)OC(C)(C)CC4)nn(-c2ccccc2)c1C(=O)OCC` was tested, and the IC50 was 189 µM. Compound `Cc1nn(-c2cccc(F)c2)c2c1c(=O)oc1ccccc12` has an IC50 of 125 µM. In the case of `CCOC(=O)c1c(-c2c(Cl)c3ccccc3oc2=O)nn(-c2cccc(Cl)c2)c1C(=O)OCC`, the IC50 is reported as 38 µM. `CCOC(=O)c1c(-c2cc3ccc(OCC=C(C)C)cc3oc2=O)nn(-c2cccc(C)c2)c1C(=O)OCC` was tested, and the IC50 was 178 µM. In the case of `CCOC(=O)c1c(-c2c(Cl)c3ccccc3oc2=O)nn(-c2ccc(Br)cc2)c1C(=O)OCC`, the IC50 is reported as 30 µM. Compound `COC(=O)c1c(-c2cc3ccccc3oc2=O)nn(-c2cccc(C)c2)c1C(=O)OC` has an IC50 of 51 µM. `CCOC(=O)c1c(-c2cc3c(ccc4ccccc43)oc2=O)nn(-c2cccc(C)c2)c1C(=O)OCC` was tested, and the IC50 was 179 µM. Work on `CCOC(=O)c1c(-c2cc3ccccc3oc2=O)nn(-c2ccc(Br)cc2)c1C(=O)OCC` yielded an IC50 of 100 µM. In the case of `Cc1nn(-c2ccc(Cl)cc2)c2c1c(=O)oc1ccccc12`, the IC50 is reported as 136 µM. `COC(=O)c1c(-c2cc3ccccc3oc2=O)nn(-c2cccc(F)c2)c1C(=O)OC` was tested, and the IC50 was 50 µM. Work on `CCOC(=O)c1c(-c2cc3cc(OC)ccc3oc2=O)nn(-c2ccccc2)c1C(=O)OCC` yielded an IC50 of 35 µM.

What follows are compounds tested on HeLa (assay: Cytotoxicity against human HeLa cells after 48 hrs by MTT assay). Details: not given.
Type: functional, cell-based
In the case of `Cc1ccc2oc(=O)c3cnn(-c4ccccc4)c3c2c1`, the IC50 is reported as 192 µM. `CCOC(=O)c1c(-c2cc3ccccc3oc2=O)nn(-c2ccccc2)c1C(=O)OCC` showed an IC50 of 100 µM. With `Cc1ccc2oc(=O)c3cnn(-c4cccc(Cl)c4)c3c2c1` the IC50 was 120 µM. `CCOC(=O)c1c(-c2cc3ccc(OCC=C(C)C)cc3oc2=O)nn(-c2cccc(Cl)c2)c1C(=O)OCC` gave an IC50 of 110 µM. For `COC(=O)Nc1nc2cc(C(=O)c3cccs3)ccc2[nH]1` [NOCODAZOLE], the IC50 was 0.71 µM. In the case of `CCOC(=O)c1c(-c2cc3cc(OC)ccc3oc2=O)nn(-c2cccc(C)c2)c1C(=O)OCC`, the IC50 is reported as 155 µM. Compound `O=c1oc2ccccc2c2c1cnn2-c1cccc(Cl)c1` has an IC50 of 110 µM. With `CCOC(=O)c1c(-c2cc3ccccc3oc2=O)nn(-c2ccc(Cl)cc2)c1C(=O)OCC` the IC50 was 87 µM. Compound `CCOC(=O)c1c(-c2cc3ccc(OC)cc3oc2=O)nn(-c2ccccc2)c1C(=O)OCC` has an IC50 of 140 µM. In the case of `CCOC(=O)c1c(-c2cc3ccccc3oc2=O)nn(-c2cccc(C)c2)c1C(=O)OCC`, the IC50 is reported as 245 µM. With `CCOC(=O)c1c(-c2c(Cl)c3cc(C)ccc3oc2=O)nn(-c2ccccc2)c1C(=O)OCC` the IC50 was 228 µM. `CCOC(=O)c1c(-c2cc3c(ccc4ccccc43)oc2=O)nn(-c2ccccc2)c1C(=O)OCC` showed an IC50 of 120 µM. Work on `COC(=O)c1c(-c2cc3ccccc3oc2=O)nn(-c2cccc(Cl)c2)c1C(=O)OC` yielded an IC50 of 76 µM. In the case of `CCOC(=O)c1c(-c2c(Cl)c3cc(C)ccc3oc2=O)nn(-c2cccc(Cl)c2)c1C(=O)OCC`, the IC50 is reported as 125 µM. `CCOC(=O)c1c(-c2cc3c(ccc4ccccc43)oc2=O)nn(-c2cccc(Cl)c2)c1C(=O)OCC` showed an IC50 of 170 µM. In the case of `CCOC(=O)c1c(-c2cc3cc4c(cc3oc2=O)OC(C)(C)CC4)nn(-c2ccccc2)c1C(=O)OCC`, the IC50 is reported as 125 µM. For `Cc1nn(-c2cccc(F)c2)c2c1c(=O)oc1ccccc12`, the IC50 was 276 µM. `CCOC(=O)c1c(-c2c(Cl)c3ccccc3oc2=O)nn(-c2cccc(Cl)c2)c1C(=O)OCC` gave an IC50 of 40 µM. `CCOC(=O)c1c(-c2cc3ccc(OCC=C(C)C)cc3oc2=O)nn(-c2cccc(C)c2)c1C(=O)OCC` showed an IC50 of 150 µM. `CCOC(=O)c1c(-c2c(Cl)c3ccccc3oc2=O)nn(-c2ccc(Br)cc2)c1C(=O)OCC` showed an IC50 of 500 µM. For `COC(=O)c1c(-c2cc3ccccc3oc2=O)nn(-c2cccc(C)c2)c1C(=O)OC`, the IC50 was 45 µM. For `CCOC(=O)c1c(-c2cc3c(ccc4ccccc43)oc2=O)nn(-c2cccc(C)c2)c1C(=O)OCC`, the IC50 was 155 µM. `CCOC(=O)c1c(-c2cc3ccccc3oc2=O)nn(-c2ccc(Br)cc2)c1C(=O)OCC` showed an IC50 of 250 µM. Work on `Cc1nn(-c2ccc(Cl)cc2)c2c1c(=O)oc1ccccc12` yielded an IC50 of 83 µM. In the case of `COC(=O)c1c(-c2cc3ccccc3oc2=O)nn(-c2cccc(F)c2)c1C(=O)OC`, the IC50 is reported as 76 µM. Compound `CCOC(=O)c1c(-c2cc3cc(OC)ccc3oc2=O)nn(-c2ccccc2)c1C(=O)OCC` has an IC50 of 145 µM.
